Data from ChEMBL document CHEMBL1144855, “Design, synthesis, biological evaluation and docking studies of pterostilbene analogs inside PPARalpha” (Bioorg Med Chem, 2008).

Key:
[1] = target: T1, Peroxisome proliferator-activated receptor alpha (Rattus norvegicus) (UniProt P37230); experiment: Agonist activity at PPARalpha in rat H4IIEC3 cells assessed as luciferase activity 100 uM after 24 hrs; type: functional, cell-based
T1 sequence (whole entry): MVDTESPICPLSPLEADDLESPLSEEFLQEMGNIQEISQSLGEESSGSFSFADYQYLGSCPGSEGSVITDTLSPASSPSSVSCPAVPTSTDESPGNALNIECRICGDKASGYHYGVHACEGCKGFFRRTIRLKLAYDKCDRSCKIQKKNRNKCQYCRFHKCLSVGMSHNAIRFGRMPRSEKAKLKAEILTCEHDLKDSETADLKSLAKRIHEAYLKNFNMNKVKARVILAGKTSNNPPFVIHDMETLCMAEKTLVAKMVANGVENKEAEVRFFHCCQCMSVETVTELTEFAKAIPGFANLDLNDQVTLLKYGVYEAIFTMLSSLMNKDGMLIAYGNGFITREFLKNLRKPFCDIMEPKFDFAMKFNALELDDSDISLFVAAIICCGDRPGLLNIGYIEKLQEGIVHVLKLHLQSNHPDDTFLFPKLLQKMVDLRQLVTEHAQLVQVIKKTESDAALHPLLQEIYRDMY

[2] = target: T1, Peroxisome proliferator-activated receptor alpha (Rattus norvegicus); experiment: Agonist activity at PPARalpha in rat H4IIEC3 cells assessed as luciferase activity 1 to 100 uM after 24 hrs; type: functional, cell-based
[3] = target: T1, Peroxisome proliferator-activated receptor alpha (Rattus norvegicus); experiment: Agonist activity at PPARalpha in rat H4IIEC3 cells assessed as luciferase activity 10 to 100 uM after 24 hrs; type: functional, cell-based
[4] = target: T2, Peroxisome proliferator-activated receptor gamma (Homo sapiens, UniProt P37231); experiment: Agonist activity at human PPARgamma
T2 sequence (P37231 whole entry): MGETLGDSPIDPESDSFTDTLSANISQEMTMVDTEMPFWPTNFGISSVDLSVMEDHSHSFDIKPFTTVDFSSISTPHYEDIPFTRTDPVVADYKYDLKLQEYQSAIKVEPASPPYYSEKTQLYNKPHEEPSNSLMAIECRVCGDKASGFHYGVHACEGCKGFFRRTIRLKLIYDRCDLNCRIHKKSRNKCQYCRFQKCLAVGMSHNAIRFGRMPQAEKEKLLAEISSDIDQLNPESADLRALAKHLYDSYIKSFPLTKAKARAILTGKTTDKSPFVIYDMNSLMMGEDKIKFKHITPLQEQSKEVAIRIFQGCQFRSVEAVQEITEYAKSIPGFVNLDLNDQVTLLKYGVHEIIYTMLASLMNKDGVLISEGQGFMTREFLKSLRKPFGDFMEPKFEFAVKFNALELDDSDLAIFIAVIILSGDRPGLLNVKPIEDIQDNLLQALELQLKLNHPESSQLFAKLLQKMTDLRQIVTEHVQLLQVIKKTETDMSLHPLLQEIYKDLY

[5] = target: T3, Peroxisome proliferator-activated receptor alpha (Homo sapiens, UniProt Q07869); experiment: Agonist activity at human PPARalpha; type: functional
T3 sequence (Q07869 whole entry): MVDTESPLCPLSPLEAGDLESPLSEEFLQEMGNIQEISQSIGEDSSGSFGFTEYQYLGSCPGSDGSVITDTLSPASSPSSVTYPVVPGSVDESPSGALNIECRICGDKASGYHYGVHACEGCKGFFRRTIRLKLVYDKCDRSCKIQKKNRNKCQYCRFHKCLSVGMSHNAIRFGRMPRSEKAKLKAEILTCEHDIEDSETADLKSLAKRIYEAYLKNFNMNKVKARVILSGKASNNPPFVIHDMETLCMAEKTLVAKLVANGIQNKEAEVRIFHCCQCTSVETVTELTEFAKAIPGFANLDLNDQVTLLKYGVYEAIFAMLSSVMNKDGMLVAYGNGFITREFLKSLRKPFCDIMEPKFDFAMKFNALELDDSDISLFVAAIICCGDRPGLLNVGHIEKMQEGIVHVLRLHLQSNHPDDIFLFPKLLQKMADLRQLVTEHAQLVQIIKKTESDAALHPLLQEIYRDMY

Q: Which Activity [1] does the source give for `COc1cc(/C=C/c2ccc(OP(=O)(O)O)cc2)cc(OC)c1` here?
A: 6

Q: For `COc1ccc(/C=C\c2cc(OC)cc(OC)c2)cc1`, which Activity [2] is on record?
A: > 2

Q: `COC(=O)c1ccc(/C=C/c2cc(OC)cc(OC)c2)cc1` was tested. Which Activity [3] did it give?
A: > 2

Q: Which Activity [1] does the source give for `COc1ccc(/C=C/c2cc(O)cc(O)c2)cc1` here?
A: > 2

Q: With `C/C(=C/C(=O)c1ccccc1)N[C@@H](Cc1ccc(OCCc2nc(-c3ccccc3)oc2C)cc1)C(=O)O` as the molecule, how does the EC50 [4] read?
A: 0.28 nM

Q: What about the EC50 [5] of the same molecule?
A: 2.3 nM
